Data from patent publication US9561231B2 (AbbVie Inc., priority 2012, dated 2017).
pKi: −log10 of the molar value.

Key:
[1] = molecular target: T1, first (BD1: amino acids K57-E168) bromodomain of BRD4 (Homo sapiens, UniProt O60885); assay: TR-FRET bromodomain binding assay, BRD4 BD1; details: TR-FRET assay protocol (A-G, compound concentration range); Ki calculated from IC50, probe Kd and probe concentration; read-out: TR-FRET Binding Ki: BRD4 (BDI_K57-E168)
T1 construct: His-tagged first (BD1: amino acids K57-E168)
Method: (§1) A time-resolved fluorescence resonance energy transfer (TR-FRET) assay was used to determine the affinities of compounds of the Examples listed in Table 1 for each bromodomain of BRD4. His-tagged first (BD1: amino acids K57-E168) and second (BD2: amino acids E352-E168) bromodomains of BRD4 were expressed and purified. An Alexa647-labeled BET-inhibitor was used as the fluorescent probe in the assay.
(§2) Compound dilution series were prepared in DMSO via an approximately 3-fold serial dilution from one of the following:
(§3) or 5-fold serial dilution from one of the following:
(§4) Assay method A: 2.5 mM-800 nM
(§5) For Assay methods A, C, D, and F: Compounds were then diluted 6:100 in assay buffer (20 mM Sodium Phosphate, pH 6.0, 50 mM NaCl, 1 mM Ethylenediaminetetraacetic acid, 0.01% Triton X-100, 1 mM DL-Dithiothreitol) to yield 3× working solutions. […] of this solution were added to the assay plate to reach a final volume of 18 μL.
(§6) TR-FRET data were normalized to the means of 24 no-compound controls (“high”) and 8 controls containing 1 μM un-labeled probe (“low”). Percent inhibition was plotted as a function of compound concentration and the data were fit with the 4 parameter logistic equation to obtain IC50s. Inhibition constants (Ki) were calculated from the IC50s, probe Kd and probe concentration. Typical Z′ values were between 0.65 and 0.75.

[2] = molecular target: T2, second (BD2: amino acids E352-E168) bromodomain of BRD4 (Homo sapiens, UniProt O60885); assay: TR-FRET bromodomain binding assay, BRD4 BD2; details: TR-FRET assay protocol (A-G, compound concentration range); Ki calculated from IC50, probe Kd and probe concentration; read-out: TR-FRET Binding Ki: BRD4 (BDII_E352-M457)
T2 construct: protocol
Method: as §1, §2, §3, §4, §5, §6

SMILES | pKi [1] | pKi [2]
Cn1nc(-c2ccccc2Oc2ccccc2)c(-c2ccc(C(O)C3CCCC3)cc2)cc1=O (stereo not drawn) [Example 74, 5-{4-[cyclopentyl(hydroxy)methyl]phenyl}-2-methyl-6-(2-phenoxyphenyl)pyridazin-3(2H)-one] | 6.20 | 5.98
C=CCC(O)c1ccc(-c2cc(=O)n(C)nc2-c2ccccc2Oc2ccccc2)cc1 (stereo not drawn) [Example 77, 5-[4-(1-hydroxybut-3-en-1-yl)phenyl]-2-methyl-6-(2-phenoxyphenyl)pyridazin-3(2H)-one] | 6.29 | 6.42
CC(=O)OCc1ccc(-c2cc(=O)n(C)nc2-c2ccccc2Oc2ccccc2)cc1 [Example 80, 4-[1-methyl-6-oxo-3-(2-phenoxyphenyl)-1,6-dihydropyridazin-4-yl]benzyl acetate] | 6.15 | 6.36
Cn1nc(-c2ccccc2Oc2ccccc2)c(C2=CCNCC2)cc1=O [Example 82, 2-methyl-6-(2-phenoxyphenyl)-5-(1,2,3,6-tetrahydropyridin-4-yl)pyridazin-3(2H)-one] | 5.39 | 5.61
CN1CC=C(c2cc(=O)n(C)nc2-c2ccccc2Oc2ccccc2)CC1 [Example 83, 2-methyl-5-(1-methyl-1,2,3,6-tetrahydropyridin-4-yl)-6-(2-phenoxyphenyl)pyridazin-3(2H)-one] | 5.44 | 5.17
CC(=O)N1CC=C(c2cc(=O)n(C)nc2-c2ccccc2Oc2ccccc2)CC1 [Example 84, 5-(1-acetyl-1,2,3,6-tetrahydropyridin-4-yl)-2-methyl-6-(2-phenoxyphenyl)pyridazin-3(2H)-one] | 5.99 | 6.00
Cn1nc(-c2ccccc2Oc2ccccc2)c(C2=CCN(S(C)(=O)=O)CC2)cc1=O [Example 85, 2-methyl-5-[1-(methylsulfonyl)-1,2,3,6-tetrahydropyridin-4-yl]-6-(2-phenoxyphenyl)pyridazin-3(2H)-one] | 5.79 | 6.10
Cn1nc(-c2ccccc2Oc2ccccc2)c(C2CCN(C(=O)OC(C)(C)C)CC2)cc1=O [Example 86, tert-butyl 4-[1-methyl-6-oxo-3-(2-phenoxyphenyl)-1,6-dihydropyridazin-4-yl]piperidine-1-carboxylate] | < 4.89 | 5.56
Cn1nc(-c2ccccc2Oc2ccccc2)c(C2CCNCC2)cc1=O [Example 87, 2-methyl-6-(2-phenoxyphenyl)-5-(piperidin-4-yl)pyridazin-3(2H)-one] | 5.70 | 5.51
CC(=O)N1CCC(c2cc(=O)n(C)nc2-c2ccccc2Oc2ccccc2)CC1 [Example 89, 5-(1-acetylpiperidin-4-yl)-2-methyl-6-(2-phenoxyphenyl)pyridazin-3(2H)-one] | 5.09 | 5.41
Cn1nc(-c2ccccc2Oc2ccccc2)c(C2CCN(S(C)(=O)=O)CC2)cc1=O [Example 90, 2-methyl-5-[1-(methylsulfonyl)piperidin-4-yl]-6-(2-phenoxyphenyl)pyridazin-3(2H)-one] | 5.34 | 5.63
Cc1nnc(-c2ccc(-c3cc(=O)n(C)nc3-c3ccccc3Oc3ccccc3)cc2)o1 [Example 91, 2-methyl-5-[4-(5-methyl-1,3,4-oxadiazol-2-yl)phenyl]-6-(2-phenoxyphenyl)pyridazin-3(2H)-one] | < 6.62 | 6.62
CCOC(=O)Cc1ccc(-c2cc(=O)n(C)nc2-c2ccccc2Oc2ccccc2)cc1 [Example 97, ethyl{4-[1-methyl-6-oxo-3-(2-phenoxyphenyl)-1,6-dihydropyridazin-4-yl]phenyl}acetate] | 6.25 | 6.75
COC(=O)c1ccc(-c2cc(=O)n(C)nc2-c2ccccc2Oc2ccccc2)cc1 [Example 102, methyl 4-[1-methyl-6-oxo-3-(2-phenoxyphenyl)-1,6-dihydropyridazin-4-yl]benzoate] | 5.59 | 6.02
CCOc1ccc(-c2cc(=O)n(C)nc2-c2ccccc2Oc2ccccc2)cc1F [Example 107, 5-(4-ethoxy-3-fluorophenyl)-2-methyl-6-(2-phenoxyphenyl)pyridazin-3(2H)-one] | 5.75 | 5.59
CN(C)C(=O)c1ccc(-c2cc(=O)n(C)nc2-c2ccccc2Oc2ccccc2)cc1 [Example 108, N,N-dimethyl-4-[1-methyl-6-oxo-3-(2-phenoxyphenyl)-1,6-dihydropyridazin-4-yl]benzamide] | 6.39 | 6.49
CN(C)C(=O)c1cccc(-c2cc(=O)n(C)nc2-c2ccccc2Oc2ccccc2)c1 [Example 109, N,N-dimethyl-3-[1-methyl-6-oxo-3-(2-phenoxyphenyl)-1,6-dihydropyridazin-4-yl]benzamide] | 5.90 | 5.82
CC(C)COc1cccc(-c2cc(=O)n(C)nc2-c2ccccc2Oc2ccccc2)c1 [Example 110, 2-methyl-5-[3-(2-methylpropoxy)phenyl]-6-(2-phenoxyphenyl)pyridazin-3(2H)-one] | < 4.89 | 4.87
CC(C)Oc1ccc(-c2cc(=O)n(C)nc2-c2ccccc2Oc2ccccc2)cc1F [Example 111, 5-[3-fluoro-4-(propan-2-yloxy)phenyl]-2-methyl-6-(2-phenoxyphenyl)pyridazin-3(2H)-one] | 5.61 | 5.71
Cn1nc(-c2ccccc2Oc2ccccc2)c(-c2ccc(C(=O)NC3CC3)cc2)cc1=O [Example 114, N-cyclopropyl-4-[1-methyl-6-oxo-3-(2-phenoxyphenyl)-1,6-dihydropyridazin-4-yl]benzamide] | 6.48 | 6.74
Cc1n[nH]c(C)c1-c1cc(=O)n(C)nc1-c1ccccc1Oc1ccccc1 [Example 115, 5-(3,5-dimethyl-1H-pyrazol-4-yl)-2-methyl-6-(2-phenoxyphenyl)pyridazin-3(2H)-one] | 4.95 | 5.16
Cn1nc(-c2ccccc2Oc2ccccc2)c(-c2cccc(NS(C)(=O)=O)c2)cc1=O [Example 120, N-{3-[1-methyl-6-oxo-3-(2-phenoxyphenyl)-1,6-dihydropyridazin-4-yl]phenyl}methanesulfonamide] | 6.21 | 5.92

The remaining lines, values ahead:

pKi [1] | pKi [2] | SMILES
6.10 | 6.85 | Cn1nc(-c2ccccc2Oc2ccccc2)c(-c2ccc(C=O)cc2)cc1=O [Example 65, 4-[1-methyl-6-oxo-3-(2-phenoxyphenyl)-1,6-dihydropyridazin-4-yl]benzaldehyde]
6.12 | 5.89 | Cn1nc(-c2ccccc2Oc2ccccc2)c(-c2ccc(C(O)c3ccccc3)cc2)cc1=O (stereo not drawn) [Example 76, 5-{4-[hydroxy(phenyl)methyl]phenyl}-2-methyl-6-(2-phenoxyphenyl)pyridazin-3(2H)-one]
< 4.89 | 5.49 | Cn1nc(-c2ccccc2Oc2ccccc2)c(-c2ccc(Cc3ccccc3)cc2)cc1=O [Example 93, 5-(4-benzylphenyl)-2-methyl-6-(2-phenoxyphenyl)pyridazin-3(2H)-one]
6.40 | 6.81 | Cn1nc(-c2ccccc2Oc2ccccc2)c(-c2ccc(CC#N)cc2)cc1=O [Example 94, {4-[1-methyl-6-oxo-3-(2-phenoxyphenyl)-1,6-dihydropyridazin-4-yl]phenyl}acetonitrile]
5.08 | 4.87 | CC(C)Cc1ccc(-c2cc(=O)n(C)nc2-c2ccccc2Oc2ccccc2)cc1 [Example 96, 2-methyl-5-[4-(2-methylpropyl)phenyl]-6-(2-phenoxyphenyl)pyridazin-3(2H)-one]
5.80 | 6.25 | Cn1nc(-c2ccccc2Oc2ccccc2)c(-c2ccncc2)cc1=O [Example 104, 2-methyl-6-(2-phenoxyphenyl)-5-(pyridin-4-yl)pyridazin-3(2H)-one]
6.75 | 6.03 | CC(=O)Nc1cccc(-c2cc(=O)n(C)nc2-c2ccccc2Oc2ccccc2)c1 [Example 106, N-{3-[1-methyl-6-oxo-3-(2-phenoxyphenyl)-1,6-dihydropyridazin-4-yl]phenyl}acetamide]
6.39 | 6.50 | Cn1nc(-c2ccccc2Oc2ccccc2)c(-c2cnn(Cc3ccccc3)c2)cc1=O [Example 113, 5-(1-benzyl-1H-pyrazol-4-yl)-2-methyl-6-(2-phenoxyphenyl)pyridazin-3(2H)-one]
5.98 | 6.26 | COc1ccc(-c2cc(=O)n(C)nc2-c2ccccc2Oc2ccccc2)cn1 [Example 116, 5-(6-methoxypyridin-3-yl)-2-methyl-6-(2-phenoxyphenyl)pyridazin-3(2H)-one]
5.83 | 6.21 | CCOc1ccc(-c2cc(=O)n(C)nc2-c2ccccc2Oc2ccccc2)cc1 [Example 117, 5-(4-ethoxyphenyl)-2-methyl-6-(2-phenoxyphenyl)pyridazin-3(2H)-one]
< 4.89 | 4.76 | Cn1nc(-c2ccccc2Oc2ccccc2)c(-c2cncc3ccccc23)cc1=O [Example 118, 5-(isoquinolin-4-yl)-2-methyl-6-(2-phenoxyphenyl)pyridazin-3(2H)-one]
